What was measured:
human ACC1 = biological target: T1, human ACC1 (Homo sapiens, UniProt Q13085); assay: ACC1 inhibitory activity (malachite green); assay type: biochemical; conditions: test compound 10 μM; for inhibition at 10 µM: read-out: ACC1 10 μM inhibitory rate (%)
T1 construct: His6 (from vector pFAST-BacHTc); made in house; host or cells: SF-9 insect cells, recombinant baculovirus BAC-ACC1
Experimental: The ACC1 inhibitory action of the compound of the present invention was evaluated by the following method.
(1) Cloning of Human ACC1 Gene and Preparation of Recombinant Baculovirus
(§1) Human ACC1 gene was cloned by PCR using a human liver cDNA library (Clontech) as a template and Primer 1 and Primer 2 shown below. Primer 1 and Primer 2 were prepared by adding SalI, NotI restriction enzyme recognition sequences based on the information of the base sequence of human ACC1 gene (Genbank Accession U19822).
(§2) PCR was performed using Pyrobest DNA polymerase (TAKARA BIO INC.). The obtained PCR product was cloned to pT7 Blue vector (Novagen) and, after confirmation of the base sequence, digested with restriction enzymes SalI and NotI. The obtained DNA fragment was inserted into pFAST-BacHTc (Invitrogen) digested with restriction enzymes SalI and NotI to give expression plasmid ACC1/pFAST-BacHTc.
Using the expression plasmid ACC1/pFAST-BacHTc and BAC-TO-BAC Baculovirus Expression System (Invitrogen), virus stock BAC-ACC1 of recombinant Baculovirus was prepared.
(2) Preparation of ACC1 Protein
(§3) SF-9 cells (Invitrogen) were inoculated to a medium (1 L) for insect cells (Sf-900IISFM medium (Invitrogen) containing 10% fetal bovine serum (Trace), 50 mg/L Gentamicin (Invitrogen), 0.1% Pluronic F-68 (Invitrogen)) at 1×10^6 cells/mL, and cultured with shaking in 2 L meyer at 27° C., 100 rpm.
After 24 hr of the culture, 10 mL of recombinant Baculovirus BAC-ACC1 was added, and the cells were cultured for 3 days. The culture medium was centrifuged at 1000×g for 5 min to give virus-infected cells. The cells were washed with phosphate buffered saline (Invitrogen) and centrifuged under the same conditions. The obtained cells were cryopreserved at −80° C.
The cryopreserved cells were thawed in ice and suspended in 100 mL of 25 mM HEPES buffer (pH 7.5) containing 10% Glycerol, 0.13 M NaCl, 1 mM EDTA, 25 mM Sodium […] and 1 mM Sodium Orthovanadate, and supplemented with Complete Protease Inhibitor (Nippon Boehringer Ingelheim Co., Ltd.). The obtained suspension was homogenized three times in a polytron homogenizer (Kinematica) at 20,000 rpm for 30 sec. The obtained cell disruption solution was clarified by centrifugation at 185700×g for 50 min, and filtered through a 0.45 μm filter. The filtrate was passed through a column packed with 12 ml of Ni-NTA Super Flow Gel (QUIAGEN) at a flow rate of about 5 mL/min. The column was washed with buffer A (50 mM HEPES (pH 7.5) containing 0.3 M NaCl), further washed with buffer A containing 20 mM Imidazole, and eluted with buffer A containing 100 mM Imidazole. The eluate was concentrated with Vivaspin 20 (Vivascience) with a molecular weight cut off of 30K. The obtained concentrate was dialyzed against Sephadex G-25 (Amersham Biosciences, 358 mL) equilibrated with 50 mM HEPES (pH 7.5) containing 10 mM MgCl2, 2 mM Dithiothreitol, 10 mM Tripotassium Citrate and 0.3 M NaCl. The inner dialysate was concentrated with Vivaspin 20 (Vivascience) with molecular weight cut off of 30K, and concentrate was filtered through a 0.22 μm filter to give ACC1. The obtained ACC1 was cryopreserved at −80° C.
(3) Measurement of ACC1 Inhibitory Activity
ACC1 (0.93 mg/ml) obtained in the above-mentioned (2) was diluted with an enzyme reaction buffer (50 mM HEPES (pH 7.5), 10 mM MgCl2, 10 mM Tripotassium Citrate, 2 mM Dithiothreitol, 0.75 mg/ml Fatty acid free BSA) to a concentration of 8 μg/ml, and the mixture was added to each well of a 384 well assay plate (Nunc 265196) by 10 μl. A test compound was dissolved in dimethyl sulfoxide (DMSO) and the mixture was diluted with an enzyme reaction buffer and the resulting solution (5 μl) was added to each well. The mixture was incubated at 30° C. for 60 min. Then, a substrate solution (50 mM KHCO3, 200 μM ATP, 200 μM Acetyl-CoA, 5 μl) was added to each well, and the mixture was reacted at 30° C. for 20 min (test compound addition group). […]

human ACC2 (Nd) = biological target: T2, human ACC2 (Nd) (Homo sapiens, UniProt O00763); assay: ACC2 inhibitory activity (malachite green); assay type: biochemical; conditions: test compound 10 μM; for inhibition at 10 µM: read-out: ACC2 10 μM inhibitory rate (%)
T2 construct: His6 (from vector pFAST-BacHTa); made in house; host or cells: SF-9 insect cells, recombinant baculovirus BAC-ACC2 (Nd)
Experimental: The ACC2 inhibitory action of the compound of the present invention was evaluated by the following method.
(1) Cloning of Human ACC2 Gene and Preparation of Recombinant Baculovirus
as §1, with “ACC2” for “ACC1”, “skeletal muscle” for “liver”, “XbaI” for “NotI”, “U89344).” for “U19822).”
as §2, with “XbaI.” for “NotI.”, “pFAST-BacHTa” for “pFAST-BacHTc”, “XbaI” for “NotI”, “ACC2/pFAST-BacHTa.” for “ACC1/pFAST-BacHTc.”
A plasmid for expression of ACC2 without a mitochondrial targeting sequence was prepared by PCR using the expression plasmid as a template, and Primer 3 (SalI restriction enzyme recognition sequence was added) and Primer 4 prepared by reference to the information of human ACC2 gene base sequence (Genbank Accession U89344).
as §2, with “Pyrobest-DNA” for “Pyrobest DNA”, “AflII.” for “NotI.”, “ACC2/pFAST-BacHTa” for “pFAST-BacHTc (Invitrogen)”, “AflII” for “NotI”, “ACC2mito7/pFAST-BacHTa.” for “ACC1/pFAST-BacHTc.”
Using the expression plasmid ACC2mito7/pFAST-BacHTa and BAC-TO-BAC Baculovirus Expression System (Invitrogen), virus stock BAC-ACC2 of recombinant Baculovirus (N terminal deleted (hereinafter Nd)) was prepared.
(2) Preparation of ACC2 (Nd) Protein
as §3, with “(2” for “(1”, “0.5×10^6” for “1×10^6”, “Wave Bioreactor (Wave)” for “2 L meyer”, “20 rpm, rocking angle 6°, oxygen concentration 30%.” for “100 rpm.”
On day 4 of the culture, 3 L of the medium for insect cells was added, the rocking angle was set to 8°, and the cells were cultured. On day 5 of the culture, 100 ml of recombinant Baculovirus BAC-ACC2 (Nd) was added, 5 L of the medium for insect cells was further added, the rocking angle was set to 11°, and the cells were cultured for 3 days. The culture medium was centrifuged at 1000×g for 10 min to give virus-infected cells. The cells were washed with phosphate buffered saline (Invitrogen) and centrifuged under the same conditions. The obtained cells were cryopreserved at −80° C.
The cryopreserved cells were thawed in ice and suspended in 900 ml of 25 mM HEPES buffer (pH 7.5) containing 10% Glycerol, 0.13 M NaCl, 1 mM EDTA, 25 mM Sodium β-Glycerophosphate and 1 mM Sodium Orthovanadate, and supplemented with Complete Protease Inhibitor (Nippon Boehringer Ingelheim Co., Ltd.). The obtained suspension was homogenized three times in a polytron homogenizer (Kinematica) at 20,000 rpm for 30 sec. The obtained cell disruption solution was clarified by centrifugation at 31000×g for 60 min, and filtered through a 0.45 μm filter. The filtrate was passed through a column packed with 60 mL of Ni-NTA Super Flow Gel (QUIAGEN) at a flow rate of about 5 mL/min. The column was washed with buffer A (50 mM HEPES (pH 7.5) containing 0.3 M NaCl), further washed with buffer A containing 20 mM Imidazole, and eluted with buffer A containing 100 mM Imidazole. The eluate was concentrated with Vivaspin 20 (Vivascience) with a molecular weight cut off of 30K. The obtained concentrate was dialyzed against 50 mM HEPES (pH 7.5) containing 10 mM MgCl2, 2 mM Dithiothreitol, 10 mM Tripotassium Citrate and 0.3 M NaCl. The inner dialysate was filtered through a 0.22 μm filter to give ACC2 (Nd). […]

T2 sequence (O00763 117-2458 limits assumed): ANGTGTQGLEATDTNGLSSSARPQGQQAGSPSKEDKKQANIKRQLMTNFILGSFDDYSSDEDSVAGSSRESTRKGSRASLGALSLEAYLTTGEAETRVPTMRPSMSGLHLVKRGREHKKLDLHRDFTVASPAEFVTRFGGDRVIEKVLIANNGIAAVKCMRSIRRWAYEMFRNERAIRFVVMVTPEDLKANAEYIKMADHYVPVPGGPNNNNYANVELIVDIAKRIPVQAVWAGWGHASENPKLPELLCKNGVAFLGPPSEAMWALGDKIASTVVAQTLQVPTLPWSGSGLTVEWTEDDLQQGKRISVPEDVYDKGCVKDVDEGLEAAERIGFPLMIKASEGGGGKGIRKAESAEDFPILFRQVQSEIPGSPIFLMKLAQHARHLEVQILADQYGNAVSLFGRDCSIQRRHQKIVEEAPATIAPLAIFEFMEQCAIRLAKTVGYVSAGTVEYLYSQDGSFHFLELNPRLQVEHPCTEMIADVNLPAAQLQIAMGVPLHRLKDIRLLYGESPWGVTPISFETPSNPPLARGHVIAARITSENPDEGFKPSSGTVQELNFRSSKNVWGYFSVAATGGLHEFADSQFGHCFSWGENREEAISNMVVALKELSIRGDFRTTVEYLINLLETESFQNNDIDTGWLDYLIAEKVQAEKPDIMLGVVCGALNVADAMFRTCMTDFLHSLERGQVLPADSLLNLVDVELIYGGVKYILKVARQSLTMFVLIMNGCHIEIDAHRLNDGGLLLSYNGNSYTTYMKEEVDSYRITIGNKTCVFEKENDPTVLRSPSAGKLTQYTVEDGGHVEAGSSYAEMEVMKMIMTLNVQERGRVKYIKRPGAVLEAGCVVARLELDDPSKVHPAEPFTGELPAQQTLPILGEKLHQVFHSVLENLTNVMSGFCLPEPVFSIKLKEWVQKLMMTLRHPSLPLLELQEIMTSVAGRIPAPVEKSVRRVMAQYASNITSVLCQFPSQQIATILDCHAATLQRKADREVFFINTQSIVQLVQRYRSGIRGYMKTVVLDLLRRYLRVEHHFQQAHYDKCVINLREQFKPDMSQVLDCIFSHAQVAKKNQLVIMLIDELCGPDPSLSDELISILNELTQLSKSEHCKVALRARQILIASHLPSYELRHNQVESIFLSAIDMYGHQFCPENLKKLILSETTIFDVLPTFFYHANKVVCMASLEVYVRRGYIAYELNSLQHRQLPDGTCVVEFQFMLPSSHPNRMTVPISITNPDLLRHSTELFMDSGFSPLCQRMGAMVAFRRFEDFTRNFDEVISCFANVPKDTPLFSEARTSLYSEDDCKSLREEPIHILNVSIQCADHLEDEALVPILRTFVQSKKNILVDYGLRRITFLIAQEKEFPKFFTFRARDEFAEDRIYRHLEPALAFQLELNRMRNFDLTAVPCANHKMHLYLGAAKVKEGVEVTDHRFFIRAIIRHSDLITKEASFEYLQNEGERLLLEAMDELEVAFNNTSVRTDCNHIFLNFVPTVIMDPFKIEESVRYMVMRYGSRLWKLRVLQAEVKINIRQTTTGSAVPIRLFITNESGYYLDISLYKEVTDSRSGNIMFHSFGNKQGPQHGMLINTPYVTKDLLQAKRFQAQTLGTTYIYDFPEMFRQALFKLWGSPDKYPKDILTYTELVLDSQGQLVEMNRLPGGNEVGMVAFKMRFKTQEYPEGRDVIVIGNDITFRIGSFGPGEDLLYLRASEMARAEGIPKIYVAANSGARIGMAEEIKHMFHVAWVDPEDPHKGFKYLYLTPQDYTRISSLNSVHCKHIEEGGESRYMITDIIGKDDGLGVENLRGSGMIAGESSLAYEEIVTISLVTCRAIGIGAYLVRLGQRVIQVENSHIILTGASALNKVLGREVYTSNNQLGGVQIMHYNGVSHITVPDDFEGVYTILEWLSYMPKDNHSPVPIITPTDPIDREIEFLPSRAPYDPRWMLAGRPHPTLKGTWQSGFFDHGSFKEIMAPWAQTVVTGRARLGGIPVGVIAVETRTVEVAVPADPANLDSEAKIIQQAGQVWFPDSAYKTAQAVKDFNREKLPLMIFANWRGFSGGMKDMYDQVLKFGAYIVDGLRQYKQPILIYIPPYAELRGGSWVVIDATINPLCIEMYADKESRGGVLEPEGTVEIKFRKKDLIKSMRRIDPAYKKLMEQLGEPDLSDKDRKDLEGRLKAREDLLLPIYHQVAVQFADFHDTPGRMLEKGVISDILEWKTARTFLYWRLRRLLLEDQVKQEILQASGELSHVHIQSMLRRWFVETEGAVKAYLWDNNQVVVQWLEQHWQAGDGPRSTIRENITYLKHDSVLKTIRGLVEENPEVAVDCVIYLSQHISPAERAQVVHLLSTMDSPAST

| SMILES | inhibition at 10 µM (human ACC1) [%] | inhibition at 10 µM (human ACC2 (Nd)) [%] | ACC1 10 μM inhibitory rate (%) (human ACC1) | ACC2 10 μM inhibitory rate (%) (human ACC2 (Nd)) |
| --- | --- | --- | --- | --- |
| CCOc1ccc(COc2ccc3sc(C(C)NC(C)=O)cc3c2)cc1 (stereo not drawn) [Example 39, N-(1-{5-[(4-ethoxybenzyl)oxy]-1-benzothiophen-2-yl}ethyl)acetamide] | 17 | 80 | – | – |
| CCOc1ccc(COc2ccc3oc(C(C)NC(C)=O)nc3c2)cc1 (stereo not drawn) [Example 42, N-(1-{5-[(4-ethoxybenzyl)oxy]-1,3-benzoxazol-2-yl}ethyl)acetamide] | 1 | 76 | – | – |
| CCCCOc1ccc(CCc2ccc3cc(C(C)NC(C)=O)oc3c2)cc1 (stereo not drawn) [Example 44, N-(1-{6-[2-(4-butoxyphenyl)ethyl]-1-benzofuran-2-yl}ethyl)acetamide] | 35 | 78 | – | – |
| CCCOc1ccc(CCc2ccc3cc(C(C)NC(C)=O)oc3c2)cc1 (stereo not drawn) [Example 47, optically active forms (two kinds) of N-(1-{6-[2-(4-propoxyphenyl)ethyl]-1-benzofuran-2-yl}ethyl)acetamide] | – | – | 37 | 91 |
| CCOc1ccc(COc2ccc3oc(C(C)NC(C)=O)cc3c2)c(F)c1 (stereo not drawn) [Example 48, N-(1-{5-[(2-fluoro-4-ethoxybenzyl)oxy]-1-benzofuran-2-yl}ethyl)acetamide] | 10 | 78 | – | – |
| CC(=O)NC(C)c1cc2ccc(CCc3ccc4c(c3)CCO4)cc2o1 (stereo not drawn) [Example 94, N-(1-{6-[2-(2,3-dihydro-1-benzofuran-5-yl)ethyl]-1-benzofuran-2-yl}ethyl)acetamide] | 19 | 80 | – | – |
| COCOc1ccc(CCc2ccc3cc(C(C)NC(C)=O)oc3c2)cc1 (stereo not drawn) [Example 95, N-[1-(6-{2-[4-(methoxymethoxy)phenyl]ethyl}-1-benzofuran-2-yl)ethyl]acetamide] | 43 | 80 | – | – |
| CCOc1ccc(CCc2cnc3cc([C@H](C)NC(C)=O)oc3c2)cc1 [Example 107, N-[(1S)-1-{6-[2-(4-ethoxyphenyl)ethyl]furo[3,2-b]pyridin-2-yl}ethyl]acetamide] | 12 | 70 | – | – |
| CC(=O)NC(C)c1cc2cc(OCc3ccc(OCC4CC4)cc3F)ccc2o1 (stereo not drawn) [Example 110, N-[1-(5-{[4-(cyclopropylmethoxy)-2-fluorobenzyl]oxy}-1-benzofuran-2-yl)ethyl]acetamide] | 40 | 78 | – | – |
| CCCOc1ccc(C#Cc2ccc3c(c2)O[C@H]([C@H](C)NC(C)=O)C3)cc1 [Example 115, N-[(1S)-1-{(2S)-6-[(4-propoxyphenyl)ethynyl]-2,3-dihydro-1-benzofuran-2-yl}ethyl]acetamide] | 25 | 76 | – | – |
| CC(=O)NC(C)c1cc2cc(OCc3ccc(OCC4CC4)cc3F)ccc2o1 (stereo not drawn) [Example 116 (retention time longer), N-[1-(5-{[4-(cyclopropylmethoxy)-2-fluorobenzyl]oxy}-1-benzofuran-2-yl)ethyl]acetamide] | – | – | 24 | 63 |
| CCOc1ccc(CCc2ccc3cc(C(C)NC(C)=O)oc3n2)cc1 (stereo not drawn) [Example 123, N-(1-{6-[2-(4-ethoxyphenyl)ethyl]furo[2,3-b]pyridin-2-yl}ethyl)acetamide] | 8 | 78 | – | – |
| CCOc1ccc(CCc2ccc3cc(C(C)Nc4ccon4)oc3c2)cc1 (stereo not drawn) [Example 124, N-(1-{6-[2-(4-ethoxyphenyl)ethyl]-1-benzofuran-2-yl}ethyl)isoxazol-3-amine] | 16 | 81 | – | – |
| CCOc1ccc(/C=C/c2ccc3cc(C(C)NC(C)=O)oc3c2)cc1 (stereo not drawn) [Example 125, N-(1-{6-[(E)-2-(4-ethoxyphenyl)ethenyl]-1-benzofuran-2-yl}ethyl)acetamide] | 33 | 83 | – | – |
| CC(=O)NC(C)c1cc2cc(OCc3ccc(OCC4CC4)cc3)ccc2o1 (stereo not drawn) [Example 132 (retention time longer), N-[1-(5-{[4-(cyclopropylmethoxy)benzyl]oxy}-1-benzofuran-2-yl)ethyl]acetamide] | 46 | 91 | – | – |

From patent US8501804B2, “Bicyclic compound” (Takeda Pharmaceutical Company Limited, priority 2008, dated 2013)
